Measured values from US10265403B2, “Cyclic peptide” (priority 2013, dated 2019).
Where no end group is shown, it is not given here.

How the values were obtained:
Human dermal fibroblasts [1] = experiment: Cell adhesion, proliferation and viability on coated substrates (PrestoBlue, Vybrant MTT, CyQUANT); format: cell-based; settings: serum-free media, days 1, 4 and 8, 50 μL peptide 100 μM or protein 500 μg/mL
Experimental: Human dermal fibroblasts (Invitrogen, UK) were maintained in Medium 106 supplemented with low serum growth supplement (2% v/v) and antibiotics (10 μg/mL gentamicin; 0.25 μg/mL amphotericin B) in […] culture flasks. The cells were incubated at 37° C., 5% CO2 and 95% air humidity. At 70-80% confluency cells were washed with PBS to remove the unattached cells and then adhered cells were trypsinised (trypsin/EDTA 0.025:0.01%) followed by trypsin neutraliser (all from Invitrogen, UK). The harvested cells (of passages 3 to 5) were seeded for subsequent cellular analysis.
Cells were seeded at a density of 4×10^3 in serum-free media for cell viability and proliferation assays on substrates (sterile 96 well plates) coated with 50 μL of peptide (100 μM) or protein (500 μg/mL). For cytoskeletal visualisation Nunc LabTek chambered cover glass slides were used as substrates.
Cell proliferation rates and viability were determined by PrestoBlue®, Vybrant® MTT and CyQUANT® assays on day 1, 4 and 8 (all from Life Technologies, UK).
PrestoBlue® reagent is supplied as a 10× solution and added to each well by diluting (1×) in the serum-free culture medium. The cells were incubated for 30 minutes at 37° C. in 200 μL of the reagent. The fluorescence of each well was measured with a microplate reader (BMG Labtech, Germany), with 544 nm excitation and 590 nm emission filters. Standard calibration curves were generated by plotting measured fluorescence values versus cell numbers. […]
Vybrant® MTT assay: For the colourimetric 3-(4, 5-dimethylthiazole-2-yl)-2, 5-diphenyl tetrazolium bromide (MTT) cell proliferation assay, the cell medium was removed from each well at the set time points and washed with PBS followed by the addition of MTT solution (10 μL, 5 mg/mL in PBS) and serum-free fresh media (100 μL). […] The absorbance intensity was measured by a microplate reader at 540 nm with a reference wavelength at 640 nm. Standard calibration curves were generated by plotting measured absorbance values versus cell numbers. […]

Human dermal fibroblasts [2] = experiment: Impedance measurements (xCELLigence) of cells on coated electrodes; format: cell-based; settings: serum-depleted medium
Experimental: Comparative impedance measurements using cell-electrode interfaces, which allow evaluating changes in effective impedance (resistance) to applied alternating current, provided further support for different cell proliferation patterns that were measured continuously in real time. Typically, cell attachments to electrode surfaces give impedance increases, whereas changes in cell morphology (cell rounding-up and detachment) cause impedance drops. Resistance traces that can correspond to different events including changes in cellular morphology, patterning and growth rates were recorded as a function of time, with cells seeded in a serum-depleted medium to avoid interferences by serum, which can modulate same signaling pathways for cell adhesion.
Impedance measurements were performed using an xCELLigence system according to the manufacturer's protocols (Roche, UK; ACEA Biosciences, USA). Each electrode array comprises 16 wells, each of which was first coated with assembled SaNet and protein solutions and background measurements were carried out prior to cell seeding. […] The electrical impedance of each well was automatically recorded every 5 min for the first 24 hours and then every 30 min till the end, and were normalised and expressed using the proprietary software as normalised cell index. Bacterial adhesions were measured every 5 min for over 15 hours. […]

E. coli = experiment: Bacterial adhesion / biofilm formation on coated substrates (Live/Dead stain, PrestoBlue); format: cell-based; settings: 16-hour incubations; E. coli and B. subtilis (FIGS. 12b, 13b, 13c, 14)
Experimental: Bacterial inocula (E. coli and B. subtilis) were prepared in Mueller Hinton broth at A600 of 0.6, then diluted to 1:100 in the pre-warmed medium, and 50 μL of this dilution was added to each well of the coated Nunc LabTek chambered cover glass slides. Formed biofilms were analysed after 16-hour incubations using a Live/Dead BacLight bacterial viability stain kit (Molecular Probes, UK), and were visualised by a confocal laser scanning microscope (CLSM) (FV-1000, Olympus). Bacterial viability was quantitatively probed by using PrestoBlue® reagent, as used for the cell viability and proliferation assay. E. coli was seeded at the same density as above in sterile bare and coated 96-well plates. After 16 hours incubation at 37° C. (or 30° C. for B. subtilis), the biofilm formed on each substrate was carefully washed with 10 mM Tris-HCl buffer, pH 7, to remove bacteria remaining in suspension. Two hundred microliters of PrestoBlue® reagent diluted in Mueller Hinton broth were added to each well and incubated for 30 minutes at 37° C. The fluorescence of each well was measured using a microplate reader with 544 nm excitation and 590 nm emission filters.
FIG. 13b and FIG. 13c are fluorescence micrographs and total viable cell counts respectively determined by PrestoBlue® of E. coli after 16-hour incubations on different substrates. […]

[3] = system: P. aeroginosa (ATCC 27853); format: cell-based, P. aeruginosa; settings: ATCC 27853, 24 h
Experimental: (§1) Minimum inhibitory concentrations (MIC) were determined by broth microdilution on P. aeruginosa ATCC 27853, E. coli K12, S. aureus ATCC 25723, M. luteus NCIMB 13267 and B. subtilis ATCC 6633 according to the Clinical and Laboratory Standards Institute. Typically, 100 μl of 0.5-1×10^6 CFU per ml of each bacterium in Mueller Hinton broth was incubated in 96 well plates with […] of serial two-fold dilutions of the peptides (final concentrations, 100-0 mM) at 37° C. (or 30° C. for B. subtilis and M. luteus) on a 3D orbital shaker. The absorbance was measured after peptide addition at 600 nm using a Victor 2 plate reader (Perkin Elmer). Minimum inhibitory concentrations (MICs) were defined as the lowest peptide concentration showing growth inhibition after 24 hours at 37° C. All tests were done in triplicate.

S. aureus (ATCC 6538) = format: cell-based; settings: ATCC 6538, 24 h
B. subtilis (ATCC 6633) = format: cell-based; settings: ATCC 6633, 24 h
Experimental: as §1

E. coli (K12) = format: cell-based; settings: K12, 24 h
Experimental: as §1

M. luteus = format: cell-based; settings: 24 h
Experimental: as §1

[4] = Haemolysis of human erythrocytes; format: cell-based; settings: 10% (v/v) suspension, pH 7.2; 50% lysis of human erythrocytes, 1 hour, room temperature; read-out: LC50
Experimental: (§2) Haemolysis was determined by incubating 10% (v/v) suspension of human erythrocytes with peptides. Erythrocytes were rinsed 4 times in 10 mM PBS, pH 7.2, by repeated centrifugation and re-suspension (3 min, 3000×g). Erythrocytes were incubated at room temperature for 1 hour in either deionised water (fully haemolysed control), PBS or with peptide in PBS. After centrifugation at 10 000 g for 5 min, the supernatant was separated from the pellet and the absorbance measured at 550 nm. Absorbance of the suspension treated with deionised water defined complete haemolysis. The values given in Table 2 correspond to concentrations needed to kill a half of the sample population (50% lysis of human erythrocytes) and are expressed as median lethal concentrations—LC50. All tests were done in triplicate.

Human erythrocytes = experiment: Haemolysis of human erythrocytes; format: cell-based; settings: in words
Experimental: as §2

Substance	cell adhesion and proliferation (total cells / total viable cells) (Human dermal fibroblasts [1])	normalised impedance after second medium inoculation (Human dermal fibroblasts [2])	resistance against bacterial adhesion / biofilm formation (E. coli)	MIC [3] [µM]	MIC (S. aureus (ATCC 6538)) [µM]	MIC (B. subtilis (ATCC 6633)) [µM]	MIC (E. coli (K12)) [µM]	MIC (M. luteus) [µM]	CC50 at 1 hour [4] [µM]	haemolytic activity (Human erythrocytes)
KIAALKQKIAALKYEIAALE-am (KIAALKQKIAALKYEIAALE-NH2) [D2, individual linear second domain, negative non-assembling peptide control]	only negligible cellular responses									
collagen	comparable values	a gradually ascending phase in impedance	did not resist biofilm formation							
cyclo(AALEGGGEIAALEQEIAALEYKIAALKGGGKIAALKQKIAALKQEI) [SaNet]				>100	>100	50	100	<50	> 600	negligible
fibronectin	comparable values	steady decays in resistance curves	did not resist biofilm formation							
